Results: US20080004227A1, “Pharmaceutical Composition for Lowering Blood Sugar Level” (PHARMAFRONTIER CO., LTD, priority 2004, published 2008)

How the values were obtained:
[1] = system: human intestinal cell line NCI-H716; conditions: literature report, background art; cited from earlier work
insulin release = conditions: 100 nmol/g directly into the stomach of 24-hour fasted C57/B6 mice; 2 hours after administration (FIG. 13)
Procedure: All experiments were performed according to an institute-approved guideline.

GT01 = GT01 (Mus musculus, UniProt Q7TMA4); conditions: STC-1 cells; peak eliminated by RNAi specific for GT01 (FIG. 6)
Sequence of GT01 (Q7TMA4 whole entry): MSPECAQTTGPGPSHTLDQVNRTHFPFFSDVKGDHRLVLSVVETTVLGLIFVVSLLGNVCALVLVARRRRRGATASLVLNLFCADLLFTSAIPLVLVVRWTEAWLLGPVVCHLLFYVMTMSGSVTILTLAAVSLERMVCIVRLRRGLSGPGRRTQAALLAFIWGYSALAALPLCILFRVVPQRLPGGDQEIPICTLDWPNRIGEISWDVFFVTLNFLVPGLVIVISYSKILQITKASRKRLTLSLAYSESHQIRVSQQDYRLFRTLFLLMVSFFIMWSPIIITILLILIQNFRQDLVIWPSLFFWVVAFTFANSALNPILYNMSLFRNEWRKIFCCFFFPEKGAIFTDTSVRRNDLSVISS
Procedure: Cells (STC-1 cells) are cultured in a 35-mm culture dish with a cover glass in the bottom. After washing with a Ca-tyrode solution, a Ca-tyrode solution containing 2 μM fura-AM is added thereto, which is then placed at room temperature for 20 minutes. After washing twice with a Ca-tyrode solution, 1 mL of Ca-tyrode solution is added thereto, and images are captured at room temperature at 15-second intervals using ARGUS200 (340/380 nm measurement) with a 40× objective lens. For each of the captured images, the ratio is calculated. Stimulation (using bombesin) serving as a control for the ligand is carried out 10 and 20 minutes later.
When an RNAi vector was transfected, fluorescence due to GFP simultaneously transfected is measured; a Ca^2+ response over time for cells having GFP fluorescence and showing Ca^2+ elevation with the control vector was quantitatively determined, and is indicated (FIG. 6).
The gene transfection into STC-1 cells was carried out using Lipofectamine Plus, and intracellular Ca^2+ concentration was then measured under a microscope (lower graph in FIG. 6).

GLP-1 release = assay: In vivo effects of ligands for GT01 on GLP-1 release (plasma GLP-1 enzyme immunoassay); parameters: species or system mouse; conditions: 100 nmol/g directly into the stomach of 24-hour fasted C57/B6 mice; blood 0.5 or 2 hours after administration (FIG. 11)
Procedure: A 100 nmol/g of fatty acid (α-linolenic acid, stearic acid, or octanoic acid) was included in polyethyleneglycol as a vehicle, and given, through a tube, directly into the stomach of 8-week old male C57/B6 mice (Sankyo Lab) after 24-hour fasting. The mice were each anaesthetized with diethyl ether 0.5 or 2 hours after the administration of the fatty acid, followed by sampling the blood from the portal vein using a heparinized syringe. The heparizized blood was centrifuged at 4° C. and 1,200×g for 20 minutes to prepare a plasma which was then subjected to enzyme immunoassay for GLP-1 (Yanaihara Institute Inc.). All experiments were performed according to an institute-approved guideline.

CCCCCCCC/C=C\CCCCCCCC(=O)O [oleic acid]
secretion of GLP-1 from NCI-H716 cells [1]: promotes the secretion of GLP-1

CC/C=C\C/C=C\C/C=C\CCCCCCCC(=O)O [α-linolenic acid]
insulin concentration in plasma, portal vein versus inferior vena cava (insulin release): higher concentration of insulin was detected in the plasma sampled from the portal vein
elevation of intracellular calcium concentration (GT01): elevates intracellular calcium concentration via GT01
secretion of GLP-1 (plasma from portal vein) (GLP-1 release): induced

CCCCCCCCCCCCCCCCCC(=O)O [stearic acid]
secretion of GLP-1 (plasma from portal vein) (GLP-1 release): induced

CCCCCCCCCCCCCCCC(=O)O [palmitic acid]
secretion of GLP-1 from NCI-H716 cells [1]: promotes the secretion of GLP-1
